# Test results taken from patent US11466044B2 (WAYNE STATE UNIVERSITY, priority 2017, dated 2022).
# Counter-ions that a name gives are not always drawn. Like-named read-outs stand apart in the source and are kept apart here.
# Legend:
# MRSA = assay: MIC by broth microdilution, MRSA isolates; type: cell-based; conditions: Table 1 (Example 3); for MIC: Staphylococcus aureus, MRSA
# [1] = test system: Klebsiella pneumonia AG215; assay: MIC by broth microdilution, Klebsiella pneumonia; type: cell-based; conditions: strain AG215 Klebsiella pneumonia
# [2] = test system: cytosolic ribosome (human chimeric); type: biochemical; conditions: for Selectivity for Binding to the Bacterial Ribosome over the Cytosolic Ribosome: Table 3 (Example 3)
# Excerpt: (§1) The antiribosomal activity of these compounds was investigated with cell-free translation assays using both wild type bacterial ribosomes and hybrid ribosomes carrying eukaryotic decoding A sites enabling the prediction of selectivity.
# [3] = test system: mitochondrial ribosome (human chimeric); type: biochemical; conditions: for Selectivity for Binding to the Bacterial Ribosome over the Mitochondrial Ribosome: Table 3 (Example 3)
# Excerpt: as §1
# M. abscessus = assay: MIC by broth microdilution, M. abscessus; type: cell-based; conditions: Mycobacteroides abscessus
# M. smegmatis SZ380 = assay: MIC by broth microdilution, M. smegmatis; conditions: for MIC: Mycolicibacterium smegmatis
# [4] = test system: Enterobacter cloacae AG290; assay: MIC by broth microdilution, Enterobacter cloacae; type: cell-based; conditions: strain AG290 Enterobacter cloacae; read-out: MIC AG290 E. cloacae
# [5] = test system: A1555G mutant mitochondrial ribosome (human chimeric); assay: in-vitro translation assay, human chimeric ribosomes, A1555G mutant mitochondrial decoding site; type: biochemical; conditions: Table 3 (Example 3)
# Excerpt: as §1
# [6] = test system: wild type bacterial ribosomes; assay: in-vitro translation assay, bacterial ribosomes; type: biochemical
# Excerpt: as §1
# [7] = test system: E coli carrying specific resistance determinants; assay: MIC by broth microdilution, E coli carrying specific resistance determinants; type: cell-based; conditions: for MIC: Escherichia coli
# P aeruginosa = assay: MIC by broth microdilution, P aeruginosa isolates; type: cell-based, Pseudomonas aeruginosa; conditions: strain AG220 Pseudomonas aeruginosa ATCC27853
# [8] = test system: Acinetobacter baumannii pittii AG225; assay: MIC by broth microdilution, Acinetobacter baumannii; type: cell-based; conditions: strain AG225 Acinetobacter baumannii pittii
# E coli wild type = assay: MIC by broth microdilution, wild type E coli; type: cell-based; conditions: for MIC: Escherichia coli
compound,measurement,setting,value
"CNC1C(OC2C(N)CC(N)C(O)C2OC2OC(CO)C(OC3OC(CN)C(O)C(O)C3N)C2O)OC(CO)C(O)C1O (centres unmarked) [Compound 115, 2′-N-Methyl-paromomycin acetate salt]",MIC,"MRSA; clinical isolate AG038, read-out: MIC MRSA AG038",8 µg/mL
same,MIC,"MRSA; clinical isolate AG039, read-out: MIC MRSA AG039",> 128 µg/mL
same,MIC,"MRSA; clinical isolate AG042, read-out: MIC MRSA AG042",> 128 µg/mL
same,MIC,"MRSA; clinical isolate AG044, read-out: MIC MRSA AG044",4 µg/mL
same,MIC,"[1]; Klebsiella pneumoniae, read-out: MIC AG215 K. pneumon",2 µg/mL
same,Selectivity for Binding to the Bacterial Ribosome over the Cytosolic Ribosome,[2],1264
same,IC50,"[2]; cytosolic, Table 4 (Example 3), read-out: IC50 Cyt",38 µM
same,Selectivity for Binding to the Bacterial Ribosome over the Mitochondrial Ribosome,[3],3151
same,IC50,"[3]; mitochondrial, Table 4 (Example 3), read-out: IC50 Mit",95 µM
same,MIC,"M. abscessus; ATCC19977, ATCC 19977 WT, Table 5 (Example 3), read-out: MIC M. abscessus ATCC 19977 WT",16 µg/mL
same,MIC,M. abscessus; read-out: MIC M. abscessus engineered Δeis2,0.5 µg/mL
same,MIC,"M. abscessus; ATCC, Table 4 (Example 3), read-out: MIC M. abscessus ATCC",16 µg/mL
same,MIC,"M. abscessus; Clin. Isol., Table 4 (Example 3), read-out: MIC M. abscessus Clin. Isol.",32 µg/mL
same,MIC,"M. smegmatis SZ380; SZ380, read-out: MIC M. smegmatis SZ380 WT, SZ380 WT, Table 5 (Example 3)",4 to 8 µg/mL
same,MIC,"M. smegmatis SZ380; SZ380, read-out: MIC SZ380 M. smegmatis, strain SZ380 Mycobacterium smegmatis",4 to 8 µg/mL
same,MIC,[4],2 µg/mL
same,Selectivity for Binding to the Bacterial Ribosome over the Mutant Mitochondrial Ribosome,[5],1134
same,IC50,"[6]; bacterial ribosome, Table 4 (Example 3), read-out: IC50 Bac",0.03 µM
same,"selectivity for the bacterial ribosome over mitochondrial (wild type, A1555G mutant) and cytosolic ribosomes, in words",[6]; compared with the parent compound,increased selectivity for the bacterial ribosome
same,MIC,[7]; read-out: MIC E coli AG106 AAC(2′),4 to 8 µg/mL
same,MIC,[7]; read-out: MIC E. coli AAC(2′) AG106,4 µg/mL
same,MIC,[7]; read-out: MIC E. coli AAC(2′) pH434,8 µg/mL
same,MIC,[7]; read-out: MIC E. coli AG106 AAC(2′)-Ia,4 µg/mL
same,MIC,[7]; read-out: MIC E. coli pGB2armA armA,4 to 8 µg/mL
same,MIC,[7]; read-out: MIC E. coli pH434 AAC(2′)-Ib,8 µg/mL
same,MIC,P aeruginosa; read-out: MIC AG220 P. aerugin,> 64 µg/mL
same,MIC,[8],4 µg/mL
same,MIC,"E coli wild type; AG104 Wild type, Table 2 (Example 3), read-out: MIC E coli AG104 Wild type",2 to 4 µg/mL
same,MIC,"E coli wild type; ATCC25922, strain AG212 E. coli (ATCC25922), read-out: MIC AG212 E. coli",4 µg/mL
same,MIC,"E coli wild type; WT, Table 4 (Example 3), read-out: MIC E. coli WT",2 to 4 µg/mL
same,MIC,"E coli wild type; WT, Table 5 (Example 3), read-out: MIC E. coli WT",2 to 4 µg/mL
same,MIC,"E coli wild type; clinical isolate AG001, Table 1 (Example 3), read-out: MIC E coli AG001",16 µg/mL
same,MIC,"E coli wild type; clinical isolate AG003, Table 1 (Example 3), read-out: MIC E coli AG003",16 µg/mL
same,MIC,"E coli wild type; clinical isolate AG055, Table 1 (Example 3), read-out: MIC E coli AG055",16 µg/mL
"CC(=O)O.NCC(=O)NC1C(OC2C(N)CC(N)C(O)C2OC2OC(CO)C(OC3OC(CN)C(O)C(O)C3N)C2O)OC(CN)C(O)C1O (centres unmarked) [Compound 175, 2′-N-(2-Aminoacetyl)-neomycin acetate salt]",MIC MRSA AG038,MRSA; clinical isolate AG038,4 µg/mL
same,MIC MRSA AG039,MRSA; clinical isolate AG039,>32 µg/mL
same,MIC MRSA AG042,MRSA; clinical isolate AG042,>32 µg/mL
same,MIC AG215 K. pneumon,[1],8 µg/mL
same,Selectivity for Binding to the Bacterial Ribosome over the Cytosolic Ribosome,[2],155
same,Selectivity for Binding to the Bacterial Ribosome over the Mitochondrial Ribosome,[3],67
same,MIC M. smegmatis SZ380 WT,"M. smegmatis SZ380; SZ380 WT, Table 5 (Example 3)",0.25 µg/mL
same,MIC SZ380 M. smegmatis,M. smegmatis SZ380; strain SZ380 Mycobacterium smegmatis,0.25 µg/mL
same,Selectivity for Binding to the Bacterial Ribosome over the Mutant Mitochondrial Ribosome,[5],153
same,MIC E. coli AG106 AAC(2′)-Ia,"[7]; AG106 AAC(2′)-Ia, Table 5 (Example 3)",16 to 32 µg/mL
same,MIC E coli AG106 AAC(2′),"[7]; AG106 AAC(2′), Table 2 (Example 3)",16 to 32 µg/mL
same,MIC E. coli pGB2armA armA,"[7]; pGB2armA armA, Table 5 (Example 3)",16 μg/ml
same,MIC AG220 P. aerugin,P aeruginosa,>32 µg/mL
same,MIC AG225 A. baumannii,[8],8 to 16 µg/mL
same,MIC E coli AG006 Wild type,"E coli wild type; AG006 Wild type, Table 2 (Example 3)",8 µg/mL
same,MIC E coli AG104 Wild type,"E coli wild type; AG104 Wild type, Table 2 (Example 3)",16 µg/mL
same,"antibacterial activity, in words","E coli wild type; MRSA and E coli, compared with the parent compound",very substantial loss of activity
same,MIC E. coli WT,"E coli wild type; WT, Table 5 (Example 3)",8 to 16 µg/mL
same,MIC E coli AG001,"E coli wild type; clinical isolate AG001, Table 1 (Example 3)",16 µg/mL
same,MIC E coli AG003,"E coli wild type; clinical isolate AG003, Table 1 (Example 3)",32 µg/mL
same,MIC E coli AG055,"E coli wild type; clinical isolate AG055, Table 1 (Example 3)",16 µg/mL
same,MIC AG212 E. coli,E coli wild type; strain AG212 E. coli (ATCC25922),16 µg/mL
